From US20240316132A1 (priority 2023, published 2024)
Converted amounts (≈) assume the structure as drawn.

Key:
[1] = cited from earlier work
[2] = Solubility in DMDA / Met10u high-KB amide surfactant; format: physicochemical
[3] = Solubility in mineral oil; format: physicochemical; conditions: oil or lipid, under certain conditions
Solubility in water = format: physicochemical
[4] = Thermal stability (decarboxylation of CBDA to CBD); format: physicochemical; conditions: saturated solution of CBDA in Met10u

CCCCC/C=C\C/C=C\CCCCCCCC(=O)O [Linoleic acid, linoleic acid]
pKa [1]: 9.24

C=C(C)[C@@H]1CCC(C)=C[C@H]1c1c(O)cc(CCCCC)c(C(=O)O)c1O [CBDA, Δ(9)-tetrahydrocannabidiolic acid]
solubility ([2]; DMDA (high-KB amide surfactant), organic solvent or mixture, at 70 C): > 1000 mg/mL | solubility of CBDA in Met10u ([2]; at 0 C): 1% | solubility of CBDA in Met10u ([2]; at 60 C): 100% | solubility [3]: ~6 mg/mL (≈ 16.7 mM) | solubility of CBDA in water (Solubility in water; temperature of 4 degrees Celsius or lower, pH 4 or lower): below 20 micrograms per milliliter | solubility of CBDA in water (Solubility in water; temperature of 70 degrees Celsius or higher, pH of 10 or higher): over 20 milligrams per milliliter | temperature at which CBDA begins to lose its carboxylic moiety (decarboxylation) and become CBD [4]: at least 130 C
